# Source: paper PMC6969523, “Corazonin signaling integrates energy homeostasis and lunar phase to regulate aspects of growth and sexual maturation in Platynereis” (Proceedings of the National Academy of Sciences of the …, 2019)
# Entries after “also recorded” stand apart in the source; their conditions may differ. Non-standard residues stand in square brackets, D forms with d. Residues, ends and D or L forms follow the SMILES beside them. pGlu = O=C1CC[C@@H](C(=O)O)N1
# T1: CrzRa (Platynereis dumerilii, UniProt A0A6B9MK47)
# T1 sequence (A0A6B9MK47 1-288): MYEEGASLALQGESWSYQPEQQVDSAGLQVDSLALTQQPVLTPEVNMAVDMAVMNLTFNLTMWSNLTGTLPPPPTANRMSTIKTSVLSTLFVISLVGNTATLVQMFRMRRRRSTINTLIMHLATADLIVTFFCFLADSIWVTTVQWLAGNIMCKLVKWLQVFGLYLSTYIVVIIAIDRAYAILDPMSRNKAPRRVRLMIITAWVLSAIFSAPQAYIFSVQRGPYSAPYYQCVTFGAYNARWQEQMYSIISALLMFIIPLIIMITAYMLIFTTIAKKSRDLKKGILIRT
# T2: CrzRb (Platynereis dumerilii, UniProt A0A291FE86)
# T2 sequence (A0A291FE86 1-422): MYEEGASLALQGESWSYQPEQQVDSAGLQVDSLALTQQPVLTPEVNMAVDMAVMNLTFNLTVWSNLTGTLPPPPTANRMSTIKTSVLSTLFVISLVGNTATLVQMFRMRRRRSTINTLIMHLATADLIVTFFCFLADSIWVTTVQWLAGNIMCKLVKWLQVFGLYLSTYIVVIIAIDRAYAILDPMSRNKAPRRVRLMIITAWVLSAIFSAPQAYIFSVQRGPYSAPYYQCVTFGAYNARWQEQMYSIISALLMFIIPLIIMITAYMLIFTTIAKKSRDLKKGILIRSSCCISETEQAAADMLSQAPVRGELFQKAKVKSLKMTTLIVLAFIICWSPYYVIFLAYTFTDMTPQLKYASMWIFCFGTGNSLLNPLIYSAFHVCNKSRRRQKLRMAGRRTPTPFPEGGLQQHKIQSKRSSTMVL
# T3: GnRHR1/AKHR1 (Platynereis dumerilii, UniProt A0A6B9MSD4)
# T3 sequence (A0A6B9MSD4 1-359): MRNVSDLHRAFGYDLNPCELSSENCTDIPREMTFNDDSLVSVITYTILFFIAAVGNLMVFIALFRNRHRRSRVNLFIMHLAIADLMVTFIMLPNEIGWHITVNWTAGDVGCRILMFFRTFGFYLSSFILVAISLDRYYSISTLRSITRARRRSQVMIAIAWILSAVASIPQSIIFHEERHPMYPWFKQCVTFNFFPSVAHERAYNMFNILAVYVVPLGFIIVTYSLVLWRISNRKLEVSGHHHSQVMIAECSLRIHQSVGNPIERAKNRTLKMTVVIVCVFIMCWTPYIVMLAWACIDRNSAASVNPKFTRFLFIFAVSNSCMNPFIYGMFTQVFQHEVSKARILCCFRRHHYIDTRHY
# T4: GnRHR2/AKHR2 (Platynereis dumerilii, UniProt A0A6B9MRA0)
# T4 sequence (A0A6B9MRA0 1-355): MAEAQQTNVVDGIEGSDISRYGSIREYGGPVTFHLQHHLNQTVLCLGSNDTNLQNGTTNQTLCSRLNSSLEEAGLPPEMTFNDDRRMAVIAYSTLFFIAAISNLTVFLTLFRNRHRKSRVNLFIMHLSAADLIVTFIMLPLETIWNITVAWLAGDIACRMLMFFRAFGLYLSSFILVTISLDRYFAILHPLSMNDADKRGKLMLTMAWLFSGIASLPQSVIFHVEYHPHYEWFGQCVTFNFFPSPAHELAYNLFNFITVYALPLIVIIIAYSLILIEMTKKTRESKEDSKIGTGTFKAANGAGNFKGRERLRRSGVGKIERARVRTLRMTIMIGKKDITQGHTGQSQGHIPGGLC
# B1: leptin: leptin, injected in female mice (protein, UniProt P41160 22-167, looked up)
# Leptin: VPIQKVQDDTKTLIKTIVTRINDISHTQSVSAKQRVTGLDFIPGLHPILSLSKMDQTLAVYQQVLTSLPSQNVLQIANDLENLRDLLHLLAFSKSCSLPQTSGLQKPESLDGVLEASLYSTEVVALSRLQGSLQDILQQLDVSPEC
# Columns and labels:
# [1] = system: glucose production; conditions: vertebrate glucagon; glycogenolysis and gluconeogenesis; ref [38], [66], [77]–[79]; cited from earlier work
# Source text: The focus on the metabolic consequences of CRZ/GnRHL provides an interesting perspective for the cross-comparison of corazonin signaling with other signaling systems. The proposed role of worm CRZ1 in promoting the expression of α-glucosidases and pepck is reminiscent of the action of the GnRH-like AKH peptide in flies but also the role of vertebrate glucagon, an independent factor that has been discussed as a functional analog of insect AKH signaling ([38], [66], [77]–[79]). […] Thus, CRZ1/GnRHL1 see ...
# [2] = system: honeybee larvae; conditions: fed with swainsonine; ref SI 20; cited from earlier work
# Source text: Cons e que nce s of lys os oma l α-ma n n o si d as e im p a i r me n t s i n o t h e r s pe ci es One of the molecular consequences of knocking out the Platynereis crz1/gnrhl1 gene that we reveal in this study is the strong reduction of lysosomal α-mannosidase. In huma ...
# [3] = target: CrzR; assay: Ligand-receptor interaction, Corazonin receptor (isoform not given); type: cell-based, Platynereis dumerilii
# Source text: (§1) We next took advantage of a cell culture-based calcium mobilization assay ([59]) for assessing the ligand–receptor interactions of these receptors. […] Given that a receptor for GnRHL3 was still missing, we tested ligand–receptor interactions of all identified Platynereis GnRH-like receptors. […] As we presently cannot exclude the existence of an additional GnRH-like receptor in Platynereis that might be activated by GnRHL3 at lower concentrations, we here use the more generic name (GnRHL3) for this ligand.
# (§2) CrzRb was identified and initially deorphanized in ref. [54]. GnRHR1/AKHR1 and GnRHR2/AKHR2, as well as the second isoform of CrzR (CrzRa) were identified using an in silico approach and confirmed by cloning and sequencing. To facilitate deorphanization, cDNA of these receptors was amplified from laboratory Platynereis strains and cloned into the pcDNA3.1 (+) vector. […] Receptor activation was measured by monitoring calcium responses for 30 s on a Mithras LB 940 luminometer (Berthold Technologies). Percentage activation values of receptors were plotted for each receptor, and half maximal effective concentrations (EC50 value) were calculated using a computerized nonlinear regression analysis with a sigmoidal dose–response equation (GraphPad PRISM software). […]
# [4] = target: T1, CrzRa; assay: Calcium mobilization (deorphanization) assay, CrzRa; type: cell-based
# Source text: as §1, §2
# [5] = target: T2, CrzRb; assay: Calcium mobilization (deorphanization) assay, CrzRb; type: cell-based
# Source text: as §1, §2
# [6] = system: GnRH-superfamily receptors; assay: Activation of GnRH-superfamily receptors in vitro; type: cell-based, Platynereis dumerilii
# Source text: as §1, §2
# [7] = target: T3, GnRHR1/AKHR1; assay: Calcium mobilization (deorphanization) assay, GnRHR1/AKHR1; type: cell-based
# Source text: as §1, §2
# [8] = target: T4, GnRHR2/AKHR2; assay: Calcium mobilization (deorphanization) assay, GnRHR2/AKHR2; type: cell-based
# Source text: as §1, §2
# [9] = system: female mice; conditions: female mice injected with leptin; ref [50]–[52]; cited from earlier work
# Source text: In turn, strong interconnections between the GnRH system and metabolism can also be found in several vertebrates. […] In mammals, GnRH release is also regulated by the orexigenic neuropeptide Y (NPY) and kisspeptin, which relays both sex steroid and leptin signaling to GnRH neurons ([49]). In line with this, a high-fat diet increases hypothalamic gnrh expression in prepubescent gilts ([50]), where this treatm ...
# [10] = CHO cells stably expressing apo-aequorin and human Gα16, transient transfection, calcium response 30 s, luminometer, nonlinear regression, at least 4 replicates in at least 2 independent experiments
# [11] = CHO cells, all receptor-ligand combinations tested, GnRHL3 at higher concentration (sub-micromolar to micromolar range)
# [12] = CHO cells, all receptors tested with all ligands
molecule,measurement,setting,value
glucagon,glucose production,[1],increased glucose production
O[C@H]1[C@H]2[C@H](O)CCCN2C[C@H]1O [swainsonine],development of honeybee larvae,[2],developmental delay in pupal metamorphosis
CC(C)C[C@H](NC(=O)[C@H](CO)NC(=O)[C@H](Cc1ccccc1)NC(=O)[C@H](CO)NC(=O)[C@H](Cc1ccccc1)NC(=O)[C@@H]1CCC(=O)N1)C(=O)N1CCC[C@H]1C(=O)NCC(=O)N[C@@H](CCCCN)C(=O)N[C@@H](Cc1c[nH]c2ccccc12)C(=O)NCC(=O)N[C@@H](CC(N)=O)C(N)=O [GnRHL3] ([pGlu]FSFSLPGKWGN-NH2),EC50 levels for CrzR activation compared with the other CRZ ligands,[3]; GnRHL3-CrzR activation assay versus other CRZ ligands,significantly higher
same,activation of CrzR,"[3]; ligand-receptor interaction analyses, isoform not stated",activated
same,EC50,[4]; [10],500 nM
same,activation of CrzRa,[4]; [11],also respond; also recorded: at higher concentration
same,EC50,[5]; [10],5.8 µM
same,activation of CrzRb,[5]; [11],also respond; also recorded: at higher concentration
same,activation of GnRH-superfamily receptors in vitro,[6],activate GnRH-superfamily receptors in vitro
CC(C)C[C@H](NC(=O)[C@H](CO)NC(=O)[C@H](CCC(N)=O)NC(=O)[C@@H](NC(=O)[C@H](CC(C)C)NC(=O)[C@@H]1CCC(=O)N1)[C@@H](C)O)C(=O)NCC(=O)N[C@@H](Cc1c[nH]c2ccccc12)C(=O)NCC(=O)N[C@@H](CO)C(=O)N[C@@H](C)C(=O)NCC(=O)N[C@@H](CO)C(=O)N[C@@H](CO)C(N)=O [GnRH2/GnRHL4] ([pGlu]LTQSLGWGSAGSS-NH2),EC50,[7]; [10],11.5 nM
same,activation of GnRHR1/AKHR1,[7]; [12],specifically activated; also recorded: respond only to a single ligand
same,EC50,[8]; [10],200 nM
same,activation of GnRHR2/AKHR2,[8]; [12],specifically activated; also recorded: respond only to a single ligand
same,activation of GnRH-superfamily receptors in vitro,[6],activate GnRH-superfamily receptors in vitro
B1,puberty onset,[9],advances puberty onset
